Experimental data published in patent publication US4056540A, “4-Phenyl-1,3-benzodioxans” (Bristol-Myers Company, priority 1975, dated 1977).
Where a name gives a salt, the structure may show the parent alone. Read-outs that look alike come from different tables or passages of the source.

Experiments:
in vivo = conditions: mouse, po, 24 hours observation
Text: hours following drug administration.

[1] = test system: pentylenetetrazole convulsions; assay: Pentylenetetrazol Infusion (Mouse); assay type: in vivo; conditions: for ED50: 1 h, po, read-out: ED50 Pentylenetetrazole Mouse (infusion); for antagonism of all the excitatory signs induced by pentylenetetrazol: clonic and tonic convulsions and lethality, result in words
Text: (§1) There were at least 3 animals per
^4 Pentylenetetrazol Infusion (Mouse) - The procedure originally
described by Orloff, M. H. et al., Proc. Soc. Exp. Biol. 70:254 (1949) an
adopted by our laboratories was used.

audiogenic seizures = assay: Audiogenic Seizures, mouse; assay type: in vivo; conditions: for blocking of tonic convulsions induced by audiogenic seizures: result in words; for ED50: 1 h, po, read-out: ED50 Audiogenic Seizure Mouse
Method: (§2) ^1 Test compounds including reference agents were administered orally
(§3) either as water solutions or as fine suspensions in Tween by gastric
(§4) intubation 60 min prior to the test. There were at least 3 animals per
^3 Audiogenic Seizures - Mice, which were genetically bred for the
susceptability to sound induced seizures (O'Grady Farms) were placed into
the sound attenuated box and exposed to a 120 sec sound stimulus of 85 db
and 10,000 c/sec frequincy. Prevention of tonic extension of hind limbs
was used as a criterion for drug effect.

[2] = test system: pentylenetetrazole lethality; assay: Pentylenetetrazol Standard Dose, mouse; assay type: in vivo; conditions: for effectiveness against pentylenetetrazole: result in words, species not given; for ED50: 1 h, mouse, po, pentylenetetrazol 125 mg/kg ip, prevention of lethality (footnote 5)
Text: as §1
(§5) Prevention of lethality was used as criterion for […]

[3] = test system: pentylenetetrazole lethality; assay: Pentylenetetrazol Standard Dose, rat; assay type: in vivo; conditions: 1 h, po, pentylenetetrazol 125 mg/kg ip, prevention of lethality (footnote 5)
Text: as §1, §5

[4] = test system: tonic convulsions induced by maximal electroshock; assay: Maximal Electroshock Test, mouse; assay type: in vivo; conditions: for ED50: 1 h, po, read-out: ED50 Maximal Electroshock Mouse; for blocking of tonic convulsions induced by maximal electroshock: result in words, species not given
Method: as §2, §3, §4
(§6) ^2 Maximal Electroshock Test - Animals were subjected to an 80mA shoc
(§7) of 0.5 sec duration by a means of corneal electrodes using the specially
(§8) designed apparatus manufactured by Wahlquist Instrument Co. Prevention of
(§9) tonic extension by hind limbs was used as a criterion for drug effect.

[5] = test system: tonic convulsions induced by maximal electroshock; assay: Maximal Electroshock Test, rat; assay type: in vivo; conditions: 1 h, po, read-out: ED50 Maximal Electroshock Rat
Method: as §2, §3, §4, §6, §7, §8, §9

[6] = Effect on aortic blood pressure in the ouabain-arrhythmia anesthetized dog; assay type: in vivo; conditions: iv; for effect on aortic blood pressure: result in words
Method: (§10) Anesthetized dogs were used for the production of ouabain-induced ventricular arrhythmias. The arrhythmia consisted of a nodal or ventricular tachycardia. The procedure used to establish the arrhythmia as well as the criteria employed to determine anti-arrhythmic activity generally was that employed by Lucchesi et al. ^1
Anti-arrhythmic activity of the compounds was determined by rapid intravenous injection and compared to lidocaine, disopyramide and aprindine The average prolonged reversion doses are shown below: […]

[7] = test system: ouabain-induced ventricular arrhythmias; assay: Reversion of ouabain-induced arrhythmia in anesthetized dogs; assay type: in vivo, dog; conditions: for ED100: Canis lupus familiaris, 0.5 h, read-out: I. V. Reverting Dose
Method: The compounds were also tested in dogs for their reversion activity in ouabain-induced arrhythmia.
as §10
1. Lucchesi, B. L. and H. F. Hardman: The influence of dichloroisoproterenol (DCI) and related compounds upon ouabain and acetylstrophanthidin induced cardiac arrhythmias.

[8] = mouse, pentylenetetrazol infusion (footnote 4)
[9] = mouse, 60 min prior to test, prevention of tonic extension of hind limbs
[10] = rat, 60 min prior to test, prevention of tonic extension of hind limbs
[11] = anesthetized dog, rapid intravenous injection, IV ED100, normal sinoatrial rhythm for greater than 30 mins
[12] = mouse, 60 min prior to test, prevention of tonic extension

Structure (SMILES): NC[C@@H]1Oc2ccc(Cl)cc2[C@H](c2ccccc2)O1 (relative stereo) [BL-3069]
- LD50 at 24 h (in vivo): 300 mg/kg
- ED50 [1, 8]: 12 mg/kg
- blocking of tonic convulsions induced by audiogenic seizures (audiogenic seizures): effective blocking agents of tonic convulsions
- effectiveness against pentylenetetrazole [2]: practically ineffective
- ED50 [3]: > 40 mg/kg
- ED50 [4, 9]: 25 mg/kg
- blocking of tonic convulsions induced by maximal electroshock [4]: effective blocking agents of tonic convulsions
- ED50 [5, 10]: > 20 mg/kg

Structure (SMILES): CNC[C@@H]1Oc2ccc(Cl)cc2[C@@H](c2ccccc2)O1 (relative stereo) [BL-3100]
- Decrease in mean aortic pressure [6]: 50 mmHg
- ED100 [7, 11]: > 10 mg/kg

Structure (SMILES): CNC(=O)[C@@H]1Oc2ccc(Cl)cc2[C@@H](c2ccccc2)O1 (relative stereo) [BL-3167]
- ED100 [7, 11]: > 10 mg/kg

Structure (SMILES): CNC[C@H]1Oc2ccc(Cl)cc2[C@@H](c2ccccc2)O1.Cl (relative stereo) [BL-3168, cis-6-Chloro-2-methylaminomethyl-4-phenyl-1,3-benzodioxan hydrochloride]
- Decrease in mean aortic pressure [6]: 20 mmHg
- ED100 [7, 11]: > 10 mg/kg
- LD50 at 24 h (in vivo): 300 mg/kg
- ED50 [1, 8]: 5 mg/kg
- ED50 (audiogenic seizures; [12]): 2.5 mg/kg
- blocking of tonic convulsions induced by audiogenic seizures (audiogenic seizures): effective blocking agents of tonic convulsions
- ED50 [2]: > 50 mg/kg
- effectiveness against pentylenetetrazole [2]: practically ineffective
- ED50 [3]: > 40 mg/kg
- ED50 [4, 9]: 10 mg/kg
- blocking of tonic convulsions induced by maximal electroshock [4]: effective blocking agents of tonic convulsions
- ED50 [5, 10]: 15 mg/kg

Structure (SMILES): CC(C)NC(=O)[C@@H]1Oc2ccc(Cl)cc2[C@@H](c2ccccc2)O1 (relative stereo) [BL-3374]
- ED100 [7, 11]: > 10 mg/kg

Structure (SMILES): CC(C)NC[C@@H]1Oc2ccc(Cl)cc2[C@@H](c2ccccc2)O1 (relative stereo) [BL-3379]
- ED100 [7, 11]: > 10 mg/kg

Structure (SMILES): CC(C)NC[C@@H]1Oc2ccccc2[C@@H](c2ccccc2)O1 (relative stereo) [BL-3394]
- effect on aortic blood pressure [6]: gressive fall in aortic
- ED100 [7, 11]: ~10 mg/kg

Structure (SMILES): CC(C)NC[C@@H]1Oc2ccc(Cl)cc2[C@H](c2ccccc2)O1 (relative stereo) [BL-3396, cis-6-Chloro-4-phenyl-2-(2-propylaminomethyl)-1,3-benzodioxan hydrochloride]
- LD50 at 24 h (in vivo): 400 mg/kg
- ED50 [1, 8]: 3 mg/kg
- ED50 (audiogenic seizures; [12]): 2.5 mg/kg
- ED50 [2]: > 50 mg/kg
- ED50 [3]: > 40 mg/kg
- ED50 [4, 9]: 10 mg/kg
- ED50 [5, 10]: 10 mg/kg

Structure (SMILES): CC(C)NC[C@@H]1Oc2ccccc2[C@H](c2ccccc2)O1 (relative stereo) [BL-3418]
- ED100 [7, 11]: 3 to 5 mg/kg

Structure (SMILES): CC(C)NC[C@H]1Oc2ccc(Cl)cc2[C@H](c2ccccc2F)O1.Cl (relative stereo) [BL-3681A, trans-6-Chloro-4-(2-fluorophenyl)-2-(2-propylaminomethyl)-1,3-benzodioxan hydrochloride]
- LD50 at 24 h (in vivo): 300 mg/kg
- ED50 [1, 8]: 12 mg/kg
- ED50 (audiogenic seizures; [12]): 10 mg/kg
- blocking of tonic convulsions induced by audiogenic seizures (audiogenic seizures): effective blocking agents of tonic convulsions
- ED50 [2]: > 50 mg/kg
- effectiveness against pentylenetetrazole [2]: practically ineffective
- ED50 [3]: > 40 mg/kg
- ED50 [4, 9]: 12 mg/kg
- blocking of tonic convulsions induced by maximal electroshock [4]: effective blocking agents of tonic convulsions
- ED50 [5, 10]: 15 mg/kg

Structure (SMILES): CNC(=O)[C@@H]1Oc2ccc(Cl)cc2[C@H](c2ccccc2)O1 (relative stereo) [BL-4093]
- ED100 [7, 11]: > 10 mg/kg

Structure (SMILES): CN(C)CCCNC(=O)[C@H]1Oc2ccc(Cl)cc2[C@H](c2ccccc2)O1.Cl (relative stereo) [BL-4932A, trans-6-Chloro-4-phenyl-N-(3-dimethylaminopropyl)-1,3-benzodioxan-2-carboxamide hydrochloride]
- transient fall in aortic blood pressure ([6]; at 10 mg/kg (N=2)): 50 mmHg
- Transient reversion at ([7]; anesthetized dog, iv, transient reversion only (N=2)): 10 mg/kg

Structure (SMILES): CN(C)CCCNC(=O)[C@H]1Oc2ccc(Cl)cc2[C@@H](c2ccccc2)O1.Cl (relative stereo) [BL-4971A, cis-6-Chloro-4-phenyl-N-(3-dimethylaminopropyl)1,3-benzodioxan-2-carboxamide hydrochloride]
- effect on aortic blood pressure [6]: No appreciable effect
- ED100 [7, 11]: 5 mg/kg

Structure (SMILES): CN(C)CCCNC(=O)[C@H]1Oc2ccccc2[C@@H](c2ccccc2)O1.Cl (relative stereo) [BL-4981A, cis-4-Phenyl-N-(3-dimethylaminopropyl)-1,3-benzodioxan-2-carboxamide hydrochloride]
- ED100 [7, 11]: > 10 mg/kg

Structure (SMILES): CCN(CC)CCCN(c1ccccc1)C1Cc2ccccc2C1 [Aprindine, reference compound]
- ED100 [7, 11]: 2.46 ± 0.83 mg/kg

Structure (SMILES): CN1C(=O)CN=C(c2ccccc2)c2cc(Cl)ccc21 [Diazepam, reference compound]
- antagonism of all the excitatory signs induced by pentylenetetrazol [1]: able to antagonize all the excitatory signs
- ED50 (audiogenic seizures; Mus musculus): 0.5 mg/kg
- ED50 ([4]; Mus musculus): 6 mg/kg
- ED50 ([5]; Rattus norvegicus): 10 mg/kg

Structure (SMILES): O=C1NC(=O)C(c2ccccc2)(c2ccccc2)N1 [Diphenylhydantoin Na, reference compound]
- ED50 [1, 8]: 20 mg/kg
- ED50 (audiogenic seizures; [12]): 10 mg/kg
- ED50 [2]: > 50 mg/kg
- ED50 [3]: 40 mg/kg
- ED50 [4, 9]: 10 mg/kg
- ED50 [5, 10]: 30 mg/kg

Structure (SMILES): CC(C)N(CCC(C(N)=O)(c1ccccc1)c1ccccn1)C(C)C (centres unmarked) [Disopyramide, reference compound]
- ED100 [7, 11]: 4.5 ± 1.3 mg/kg

Structure (SMILES): CCN(CC)CC(=O)Nc1c(C)cccc1C [Lidocaine, reference compound]
- ED100 ([7]; iv): 6.4 ± 1.4 mg/kg

Structure (SMILES): CCC1(c2ccccc2)C(=O)NC(=O)NC1=O [Phenobarbital Na, reference compound]
- LD50 at 24 h (in vivo): 265 mg/kg
- ED50 ([1]; Mus musculus): 8 mg/kg
- antagonism of all the excitatory signs induced by pentylenetetrazol [1]: able to antagonize all the excitatory signs
- ED50 (audiogenic seizures; Mus musculus): 2.5 mg/kg
- ED50 [2]: 15 mg/kg
- ED50 [3]: 20 mg/kg
- ED50 ([4]; Mus musculus): 10 mg/kg
- ED50 ([5]; Rattus norvegicus): 8 mg/kg

Structure (SMILES): CN1C(=O)OC(C)(C)C1=O [Trimethadione, reference compound]
- LD50 at 24 h (in vivo): 2170 mg/kg
- ED50 [1, 8]: 200 mg/kg
- antagonism of all the excitatory signs induced by pentylenetetrazol [1]: able to antagonize all the excitatory signs
- ED50 (audiogenic seizures; [12]): 150 mg/kg
- ED50 [2]: 400 mg/kg
- ED50 [3]: 100 mg/kg
- ED50 [4, 9]: > 400 mg/kg
- ED50 [5, 10]: 300 mg/kg
